Assay results reported in patent publication US12617771B2, “Diphenylpyrazole compound, and preparation method therefor and application thereof” (NORTHWEST A&F UNIVERSITY, priority 2021, dated 2026).

Columns and labels:
Format in all cases: biochemical
Carposina sasakii GSTs = test: Inhibition of total GSTs enzyme of Carposina sasakii (CDNB method)
Description: (§1) Experiment: About 50 mg of larvae/nymphs of nine major pests such as Plutella xylostella, Mythimna separata, Pyrausta nubilalis, Chilo suppressalis, Nilaparvata lugens, Spodoptera frugiperda, Helicoverpa armigera, Carposina sasakii, Spodoptera litura were taken, grounded in a mortar pre-cooled at −80° C., and then 1 mL of 100 mM sodium phosphate buffer (1 mM EDTA, pH 7.2) was added and fully homogenized. The homogenate was transferred to a 1.5 mL centrifuge tube at 4° C., and centrifuged at 14,000 g for 30 minutes, and the supernatant was transferred to a new centrifuge tube as the GSTs total enzyme. The protein concentrations of the above total enzymes were determined using the BCA method.
(§2) 100 μL of PBS buffer (100 mM, pH 7.2) containing 1 mM GSH was taken and placed in a 96-well plate, 5 μg of insect total GSTs enzymes and an appropriate concentration of compounds PXG1-PXG29 (29 compounds) of the present invention were added to each well, after uniformly mixing, and allowed to stand at 30° C. for 10 min. Then 100 μL of PBS buffer (100 mM, pH 7.2) containing 1 mM CDNB was added to each well. Immediately after mixing, the mixture was placed in a microplate reader to measure the absorbance at a wavelength of 340 nm (A 340) once every 1 min, the measurement was carried out continuously for 5 min, the light absorption values of each measuring point were recorded and the inhibition rate in vitro of the compounds with different concentrations against insects total GSTs enzymes were calculated. Each group of assays was repeated three times, and total GSTs enzymes inactivated at 100° C. for 5 min were used as negative controls, and GTX was used as positive controls. GraphPad Prism 5 software was used for analysis and calculation of IC50. Relative inhibition was calculated using the following formula:
(§3) [formula] • wherein, A340 is the change of A340 within 5 minutes for the control group, and A340t is the change of A340 within 5 minutes for the experimental group.

PxGSTδ1 = PxGSTδ1 (Plutella xylostella, UniProt D7URW9); test: Inhibition of PxGSTδ1 recombinant protein; conditions: read-out: 100 μM Inhibition rate %
Description: (§4) Experiment: 100 μL of PBS buffer (100 mM, pH 7.2) was taken and added to a 96-well plate, 1 μg of PxGSTs recombinant protein and an appropriate concentration of the compounds PXG1-PXG29 of the present invention were added to each well, after uniformly mixing, and allowed to stand at 30° C. for 10 min. Then 100 μL of PBS buffer (100 mM, pH 7.2) containing 1 mM CDNB and 1 mM GSH was successively added to each well. Immediately after mixing, the mixture was placed in a microplate reader to measure the absorbance at a wavelength of 340 nm (A340) once every 1 min, the measurement was continued for 5 min, the light absorption values of each measuring point were recorded and the inhibition rate in vitro of the compounds PXG1-PXG29 of the present invention with different concentrations against PxGSTs recombinant protein were calculated. Each group of assays was repeated three times, and PxGSTs recombinant protein inactivated at 100° C. for 5 min was used as negative control, and GTX was used as positive control. GraphPad Prism 5 software was used for analysis and calculation of IC50. Relative inhibition was calculated using the following formula:
(§5) [formula] • wherein, A340c is the change of A340 […] the control group, an A340t is the change of A340 within 5 minutes for the experimental group.

PxGSTε3 = PxGSTε3 (Plutella xylostella, UniProt O77409); test: Inhibition of PxGSTε3 recombinant protein; conditions: read-out: 100 μM Inhibition rate %
Description: as §4, §5

[1] = target: Spodoptera frugiperda GSTs; test: Inhibition of total GSTs enzyme of Spodoptera frugiperda (CDNB method)
Description: as §1, §2, §3

Spodoptera litura GSTs = test: Inhibition of total GSTs enzyme of Spodoptera litura (CDNB method)
Description: as §1, §2, §3

Chilo suppressalis GSTs = test: Inhibition of total GSTs enzyme of Chilo suppressalis (CDNB method)
Description: as §1, §2, §3

[2] = target: Helicoverpa armigera GSTs; test: Inhibition of total GSTs enzyme of Helicoverpa armigera (CDNB method)
Description: as §1, §2, §3

PxGSTσ1 = PxGSTσ1 (Plutella xylostella, UniProt Q6F436); test: Inhibition of PxGSTσ1 recombinant protein; conditions: read-out: 100 μM Inhibition rate %
Description: as §4, §5

Plutella xylostella GSTs = test: Inhibition of total GSTs enzyme of Plutella xylostella (CDNB method)
Description: as §1, §2, §3

PxGSTσ2 = PxGSTσ2 (Plutella xylostella, UniProt Q6F443); test: Inhibition of PxGSTσ2 recombinant protein; conditions: read-out: 100 μM Inhibition rate %
Description: as §4, §5

Mythimna separata GSTs = test: Inhibition of total GSTs enzyme of Mythimna separata (CDNB method)
Description: as §1, §2, §3

Nilaparvata lugens GSTs = test: Inhibition of total GSTs enzyme of Nilaparvata lugens (CDNB method)
Description: as §1, §2, §3

Pyrausta nubilalis GSTs = test: Inhibition of total GSTs enzyme of Pyrausta nubilalis (CDNB method)
Description: as §1, §2, §3

PxGSTσ2, sequence (Q6F443 entry or part of it): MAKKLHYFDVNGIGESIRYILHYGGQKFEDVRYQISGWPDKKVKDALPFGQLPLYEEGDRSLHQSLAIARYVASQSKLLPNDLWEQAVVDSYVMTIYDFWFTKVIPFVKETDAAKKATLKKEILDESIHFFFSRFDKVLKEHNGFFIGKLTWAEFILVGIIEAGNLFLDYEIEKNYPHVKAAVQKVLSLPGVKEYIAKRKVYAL
PxGSTε3, sequence (O77409 entry or part of it): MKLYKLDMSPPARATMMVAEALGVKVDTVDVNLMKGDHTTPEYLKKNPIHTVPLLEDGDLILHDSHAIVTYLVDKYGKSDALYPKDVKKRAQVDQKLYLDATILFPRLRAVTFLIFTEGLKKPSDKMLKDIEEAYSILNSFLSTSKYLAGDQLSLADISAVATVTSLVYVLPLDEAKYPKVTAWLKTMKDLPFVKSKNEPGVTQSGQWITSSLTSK
PxGSTσ1, sequence (Q6F436 entry or part of it): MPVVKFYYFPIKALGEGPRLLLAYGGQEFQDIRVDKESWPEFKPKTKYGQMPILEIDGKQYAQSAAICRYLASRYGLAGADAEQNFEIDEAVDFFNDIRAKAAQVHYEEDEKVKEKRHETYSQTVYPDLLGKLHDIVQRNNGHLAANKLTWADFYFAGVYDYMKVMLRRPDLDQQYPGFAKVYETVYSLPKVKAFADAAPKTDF
PxGSTδ1, sequence (D7URW9 entry or part of it): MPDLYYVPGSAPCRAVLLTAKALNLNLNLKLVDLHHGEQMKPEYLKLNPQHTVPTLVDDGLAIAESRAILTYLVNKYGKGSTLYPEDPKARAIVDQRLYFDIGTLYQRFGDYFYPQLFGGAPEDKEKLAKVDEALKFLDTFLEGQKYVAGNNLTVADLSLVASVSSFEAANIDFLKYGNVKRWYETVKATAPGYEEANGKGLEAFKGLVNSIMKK

SMILES | IC50 (Carposina sasakii GSTs) [µM] | 100 μM Inhibition rate % (Carposina sasakii GSTs) [%] | inhibition at 100 µM (PxGSTδ1) [%] | inhibition at 100 µM (PxGSTε3) [%] | IC50 [1] [µM] | 100 μM Inhibition rate % [1] [%] | IC50 (Spodoptera litura GSTs) [µM] | 100 μM Inhibition rate % (Spodoptera litura GSTs) [%] | IC50 (Chilo suppressalis GSTs) [µM] | 100 μM Inhibition rate % (Chilo suppressalis GSTs) [%] | IC50 [2] [µM] | 100 μM Inhibition rate % [2] [%] | inhibition at 100 µM (PxGSTσ1) [%] | IC50 (Plutella xylostella GSTs) [µM] | 100 μM Inhibition rate % (Plutella xylostella GSTs) [%] | inhibition at 100 µM (PxGSTσ2) [%] | IC50 (Mythimna separata GSTs) [µM] | 100 μM Inhibition rate % (Mythimna separata GSTs) [%] | IC50 (Nilaparvata lugens GSTs) [µM] | 100 μM Inhibition rate % (Nilaparvata lugens GSTs) [%] | also measured
COc1cc(C(=O)NNC(=O)c2cc(-c3ccccc3)nn2-c2ccccc2)cc(OC)c1OC [PXG4, N′-(1,3-diphenyl-1H-pyrazol-5-yl-carbonyl)-3,4,5-trimethoxybenzohydrazine] | > 100 | 2.34 | 18.4 | 8.88 | > 100 | −7.57 | > 100 | −17.52 | > 100 | −10.90 | > 100 | 4.07 | 43.6 | > 100 | −10.64 | 21.6 | > 100 | 0.00 | > 100 | −5.99 | IC50 (Pyrausta nubilalis GSTs): > 100 µM; 100 μM Inhibition rate % (Pyrausta nubilalis GSTs): −7.23%
CN(C)S(=O)(=O)c1ccc(C(=O)NNC(=O)c2cc(-c3ccccc3)nn2-c2ccccc2)cc1 [PXG29, 4-[N′-(1,3-diphenyl-1H-pyrazol-5-yl-carbonyl) hydrazinocarbonyl]-N,N-dimethyl phenyl-1-sulfonamide] | > 100 | 33.57 | 16.7 | 0.03 | > 100 | 4.82 | > 100 | 4.60 | > 100 | 13.81 | > 100 | 10.99 | 53.3 | > 100 | 9.32 | 44.7 | > 100 | 4.90 | > 100 | −10.71 | IC50 (Pyrausta nubilalis GSTs): > 100 µM; 100 μM Inhibition rate % (Pyrausta nubilalis GSTs): 10.83%
N#Cc1ccc(OCC(=O)NNC(=O)c2cc(-c3ccccc3)nn2-c2ccccc2)cc1 [PXG19, 2-(4-cyanophenoxy)-N′-(1,3-diphenyl-1H-pyrazol-5-yl-carbonyl)acetohydrazide] | > 100 | 19.42 | 58.7 | 5.57 | > 100 | 19.64 | > 100 | 31.70 | > 100 | 22.03 | > 100 | 6.30 | 45.9 | > 100 | 23.03 | 32.5 | > 100 | 47.16 | > 100 | 10.00 | IC50 (Pyrausta nubilalis GSTs): > 100 µM; 100 μM Inhibition rate % (Pyrausta nubilalis GSTs): 15.64%
COc1ccccc1OCC(=O)NNC(=O)c1cc(-c2ccccc2)nn1-c1ccccc1 [PXG18, N′-(1,3-diphenyl-1H-pyrazol-5-yl-carbonyl)-2-(2-methoxyphenoxy)acetohydrazide] | > 100 | 13.69 | 82 | -2.47 | > 100 | 28.67 | > 100 | 7.95 | > 100 | 23.00 | > 100 | −3.02 | 31.7 | > 100 | 32.94 | 13.5 | > 100 | −2.16 | > 100 | 45.31 | IC50 (Pyrausta nubilalis GSTs): > 100 µM; 100 μM Inhibition rate % (Pyrausta nubilalis GSTs): 23.84%
CC1CCC2(CC1)NC(=O)N(NC(=O)c1cc(-c3ccccc3)nn1-c1ccccc1)C2=O (centres unmarked) [PXG16, N-{8-methyl-2,4-dioxo-1,3-diazaspiro[4.5]dec-3-yl}-1,3-diphenyl-1H-pyrazol-5-yl-carboxamide] | > 100 | 6.98 | 5.35 | 4.12 | > 100 | −1.72 | > 100 | −0.15 | > 100 | 10.53 | > 100 | 2.28 | 70.5 | > 100 | 8.64 | 39.3 | > 100 | 10.50 | > 100 | −1.00 | IC50 (Pyrausta nubilalis GSTs): > 100 µM; 100 μM Inhibition rate % (Pyrausta nubilalis GSTs): 0.41%
O=C(NNC(=O)c1cc(-c2ccccc2)nn1-c1ccccc1)c1ccccc1 [PXG11, N′-(1,3-diphenyl-1H-pyrazol-5-yl-carbonyl) benzohydrazine] | > 100 | 76.09 | 35.3 | -7.28 | > 100 | 20.95 | > 100 | 24.52 | > 100 | 54.79 | > 100 | 8.09 | 60.7 | > 100 | 22.90 | 22.6 | > 100 | 31.76 | > 100 | 8.16 | IC50 (Pyrausta nubilalis GSTs): > 100 µM; 100 μM Inhibition rate % (Pyrausta nubilalis GSTs): 23.84%
O=C(NN1C(=O)NC2(CCCCC2)C1=O)c1cc(-c2ccccc2)nn1-c1ccccc1 [PXG6] | > 100 | 18.21 | 12.2 | 4.85 | > 100 | 11.37 | > 100 | 6.90 | > 100 | 15.98 | > 100 | 23.21 | 49.1 | > 100 | 21.15 | 33.6 | > 100 | 38.85 | > 100 | −1.46 | IC50 (Pyrausta nubilalis GSTs): > 100 µM; 100 μM Inhibition rate % (Pyrausta nubilalis GSTs): 13.70%
O=C(CNc1ccccc1)NNC(=O)c1cc(-c2ccccc2)nn1-c1ccccc1 [PXG3, N′-(1,3-diphenyl-1H-pyrazol-5-yl-carbonyl)-2-(phenylamino) acetohydrazide] | > 100 | 23.07 | 72.4 | -1.11 | > 100 | 35.46 | > 100 | 17.09 | > 100 | 26.63 | > 100 | 20.74 | 36.1 | > 100 | 25.47 | 27.6 | > 100 | 42.96 | > 100 | 35.05 | IC50 (Pyrausta nubilalis GSTs): > 100 µM; 100 μM Inhibition rate % (Pyrausta nubilalis GSTs): 17.35%
